In article PMC10999085, “Synthesis, anticancer evaluation, molecular docking and ADME study of novel pyrido[4ʹ,3ʹ:3,4]pyrazolo[1,5-a]pyrimidines as potential tropomyosin receptor kinase A (TrKA) inhibitors” (BMC Chemistry, 2024):
Values after ≈ are worked out from the molar mass of the structure shown.

Key:
[1] = tested on: MCF7 cell line; assay: MTT assay, MCF7 cell line; type: cell-based, human; details: 24 hr treatment, in % (unit assumed); for Cytotoxicity at 5 µg/l: MCF7, 5 µg/l; for Cytotoxicity at 10 µg/l: MCF7, 10 µg/l; for Cytotoxicity at 20 µg/l: MCF7, 20 µg/l
Protocol: (§1) Determination of the inhibitory effects of compounds on cell growth was performed through the MTT assay. This colorimetric assay is based on the conversion of the yellow tetrazolium bromide (MTT) to a purple formazan derivative by mitochondrial succinate dehydrogenase in viable cells. The protocol was discussed in details in Additional file 1.
(§2) Compounds 1, 4a,b, 7a–c, 7k, l, 9a–c, 14a, 15b, 16a–c were selected to be investigated against three human cancer cell lines MCF7, HepG2 and HCT116 cell lines using MTT assay using doxorubicin as the standard drug. Each point is the mean ± SD (standard deviation) of three independent experiments performed in triplicate, using the prism software program (integrated Graphpad software, version 3).
(§3) Cell lines were used to measure the cell growth effects of the compounds using the MTT assay. This colorimetric assay is depend on the conversion of the yellow tetrazolium bromide (MTT) to a purple formazan derivative by mitochondrial succinate dehydrogenase in living cells. Cell lines were cultured in RPMI-1640 medium supplemented with 10% fetal bovine serum. The antibiotics added were 100 units/ml penicillin and 100 µg/ml streptomycin at 37 °C in a 5% CO2 incubator. Cell lines were seeded in a 96-well plates at a density of 1.0x10^4 cells/well and cultured at 37 °C for 48 h under 5% CO2. After incubation, the cells were treated with different concentrations of compounds and incubated for 24 hr. After 24 hr of drug treatment, 20 µl of MTT solution at 5 mg/ml was added to each well and incubated for 4 hr. 100 µl of dimethyl sulfoxide (DMSO) was added into each well to dissolve the purple formazan formed. The colorimetric assay was measured and recorded at absorbance of 570 nm using a plate reader (EXL 800, USA). Relative cell viability (%) was calculated as (A570 of treated sample/A570 of untreated sample) x 100 [36, 37].

[2] = tested on: HepG2 cell line; assay: MTT assay, HepG2 cell line; type: cell-based, human; details: MTT, 24 hr treatment, in % (unit assumed); for Cytotoxicity at 5 µg/l: HepG2, 5 µg/l; for Cytotoxicity at 10 µg/l: HepG2, 10 µg/l; for Cytotoxicity at 20 µg/l: HepG2, 20 µg/l
Protocol: as §1, §2, §3

[3] = tested on: HCT-116 cell line; assay: MTT assay, HCT-116 cell line; type: cell-based, human; details: for Cytotoxicity at 5 µg/l: HCT116, 5 µg/l; for Cytotoxicity at 5 µg/l / Cytotoxicity at 10 µg/l / Cytotoxicity at 20 µg/l: MTT, 24 hr treatment, in % (unit assumed); for Cytotoxicity at 10 µg/l: HCT116, 10 µg/l; for Cytotoxicity at 20 µg/l: HCT116, 20 µg/l
Protocol: as §1, §2, §3

SMILES	Cytotoxicity at 5 µg/l [1]	Cytotoxicity at 10 µg/l [1]	Cytotoxicity at 20 µg/l [1]	Cytotoxicity at 5 µg/l [2]	Cytotoxicity at 10 µg/l [2]	Cytotoxicity at 20 µg/l [2]	Cytotoxicity at 5 µg/l [3]	Cytotoxicity at 10 µg/l [3]	Cytotoxicity at 20 µg/l [3]	melting point [°C]	IC50 ([3]; Homo sapiens, HCT-116, HCT116, MTT, read-out: IC50 (drug concentration that inhibited 50% of cell proliferation)) [ng/mL]
Cc1cc(C)n2nc3c(c2n1)C(=O)NC(=O)C3=Cc1ccccc1 [Compound 7a, 7-Benzylidene-2,4-dimethylpyrido[4ʹ,3ʹ:3,4]pyrazolo[1,5-a]pyrimidine-8,10(7H,9H)-dione]	30.13	45.66	66.12	38.17	42.56	76.04	50.82	84.52	91.78	240	
O=C1NC(=O)c2c(nn3c(-c4ccccc4)cc(-c4ccccc4)nc23)C1=Cc1ccccc1 [Compound 7k, 7-Benzylidene-2,4-diphenylpyrido[4ʹ,3ʹ:3,4]pyrazolo[1,5-a]pyrimidine-8,10(7H,9H)-dione]	36.19	55.16	71.12	41.84	88.59	90.19	39.48	46.55	62.92	275	
Cc1cc(C)n2nc3c(c2n1)C(=O)NC(=O)C3=NNc1ccccc1 [Compound 9a, 2,4-Dimethyl-7-(2-phenylhydrazono)pyrido[4ʹ,3ʹ:3,4]pyrazolo[1,5-a]pyrimidine-8,10(7H,9H)-dione]	36.10	49.11	75.34	13.11	49.16	79.17	34.38	55.47	65.98	300	
Cc1cc(C)n2nc3c(c2n1)C(=O)NC(=O)C3=Cc1ccc(Cl)cc1 [Compound 7c]	40.12	69.00	92.48	35.08	41.65	67.89	50.56	68.21	68.85	260	4.07 (≈ 0.0115 µM)
Cc1ccc(NN=C2C(=O)NC(=O)c3c2nn2c(C)cc(C)nc32)cc1 [Compound 9b, 2,4-Dimethyl-7-(2-(p-tolyl)hydrazono)pyrido[4ʹ,3ʹ:3,4]pyrazolo[1,5-a]pyrimidine-8,10(7H,9H)-dione]	33.82	51.19	72.13	8.46	33.81	73.11	22.09	40.50	59.80	285	
Cc1cc(C)n2nc3c(c2n1)C(=O)NC(=O)C3 [Compound 4a, 2,4-Dimethylpyrido[4ʹ,3ʹ:3,4]pyrazolo[1,5-a]pyrimidine-8,10(7H,9H)-diones]	35.61	74.99	84.71	15.91	60.95	82.16	56.23	71.78	84.77	330	
COc1ccc(C=C2C(=O)NC(=O)c3c2nn2c(-c4ccccc4)cc(-c4ccccc4)nc32)cc1 [Compound 7l]	40.19	52.28	97.26	40.25	71.84	96.62	57.14	61.58	91.59	315	
Cc1cc(O)n2nc3c(c2n1)C(=O)NC(=O)C3 [Compound 14a, 4-Hydroxy-2-methylpyrido[4ʹ,3ʹ:3,4]pyrazolo[1,5-a]pyrimidine-8,10(7H,9H)-dione]	25.14	48.62	77.19	11.39	40.75	83.75	28.84	55.79	58.72	> 360	
Cc1ccc(NN=C2C(=O)NC(=O)c3c2nn2c(O)cc(C)nc32)cc1 [Compound 16b, 4-Hydroxy-2-methyl-7-(2-(p-tolyl)hydrazono)pyrido[4ʹ,3ʹ:3,4]pyrazolo[1,5-a]pyrimidine-8,10(7H,9H)-dione]	54.13	55.27	80.56	18.01	42.54	50.18	23.18	52.73	85.28	330	
O=C1NC(=O)c2c(nn3c(O)cc(-c4ccccc4)nc23)C1=Cc1ccc(Cl)cc1 [Compound 15f, 7-(4-Chlorobenzylidene)-4-hydroxy-2-phenylpyrido[4ʹ,3ʹ:3,4]pyrazolo[1,5-a]pyrimidine-8,10(7H,9H)-dione]										330	
O=C1NC(=O)c2c(nn3c(-c4ccccc4)cc(-c4ccccc4)nc23)C1=Cc1ccccc1O [Compound 7n, 7-(2-Hydroxybenzylidene)-2,4-diphenylpyrido[4ʹ,3ʹ:3,4]pyrazolo[1,5-a]pyrimidine-8,10(7H,9H)-dione]										275	
O=C1NC(=O)c2c(nn3c(O)cc(-c4ccccc4)nc23)C1=NNc1ccc(Cl)cc1 [Compound 16h, 7-(2-(4-Chlorophenyl)hydrazono)-4-hydroxy-2-phenylpyrido[4ʹ,3ʹ:3,4]pyrazolo[1,5-a]pyrimidine-8,10(7H,9H)-dione]										330	
O=C1Cc2nn3c(-c4ccccc4)cc(-c4ccccc4)nc3c2C(=O)N1 [Compound 4b, 2,4-Diphenylpyrido[4ʹ,3ʹ:3,4]pyrazolo[1,5-a]pyrimidine-8,10(7H,9H)-dione]	22.19	55.85	70.37	38.14	43.81	76.43	7.31	21.33	66.23	300	
O=C1NC(=O)c2c(nn3c(-c4ccccc4)cc(-c4ccccc4)nc23)C1=NNc1ccc(Cl)cc1 [Compound 11d, 7-(2-(4-Chlorophenyl)hydrazono)-2,4-diphenylpyrido[4ʹ,3ʹ:3,4]pyrazolo[1,5-a]pyrimidine-8,10(7H,9H)-dione]										335	
